Measurements: patent US9801901B2, “Alginate oligomers for use in overcoming multidrug resistance in bacteria” (priority 2009, dated 2017)
Converted amounts (≈) assume the structure as drawn. Read-outs that look alike come from different tables or passages of the source. Marks after values point to notes of the source that are not given here.

Key:
[1] = tested on: Burkholderia cepacia (1322, V23); assay: MIC-assay, Mueller-Hinton broth with G-block alginate, 384-well, OD600
[2] = tested on: Acinetobacter baumannii (Egypt, V9); assay: as above
[3] = tested on: Acinetobacter lwoffii (6056, V22); assay: as above
[4] = tested on: PA01 Pseudomonas aeruginosa ATCC 15692; assay: MIC assay, two-fold antibiotic dilutions in CAMHB with alginate oligomer, no visible growth; format: cell-based; settings: Pseudomonas aeruginosa, ATCC15692, Table 1, PA01, read-out: MIC
[5] = tested on: Pseudomonas aeruginosa ATCC 39324, mucoid type strain (R79); assay: MIC assay, CAMHB with alginate oligomer, no visible growth; format: cell-based; settings: Pseudomonas aeruginosa, ATCC39324, Table 1, R79, read-out: MIC
[6] = tested on: V9 (Egypt) Acinetobacter baumannii; assay: as above; format: cell-based; settings: Table 5, V9 MDR Acin. baum
[7] = tested on: V10 (Egypt) Acinetobacter lwoffii; assay: as above; format: cell-based; settings: Table 5, V10 MDR Acin. lwoff
[8] = tested on: V23 1322 Burkholderia cepacia; assay: as above; format: cell-based
[9] = tested on: Pseudomonas aeruginosa CFA 24-1, clinical mucoid strain (R80); assay: as above; format: cell-based; settings: Pseudomonas aeruginosa, Table 1, R80, read-out: MIC
[10] = tested on: Pseudomonas aeruginosa MDR 301 from Poland (V2); assay: as above; format: cell-based; settings: Pseudomonas aeruginosa, Table 1, V2 MDR 301 PA, read-out: MIC
[11] = tested on: Klebsiella pneumoniae KP05 506 from India (V3); assay: as above; format: cell-based; settings: for MIC: Klebsiella pneumoniae, Table 1, V3 KP05 506, read-out: MIC
[12] = tested on: V19 non MDR Acinetobacter baumannii; assay: MIC assay, CAMHB with M-block alginate oligomer, no visible growth; format: cell-based; settings: Table 7, V19 non MDR Acin. baum
From the text: The study described in Example 1 was repeated with the following strains of Acinetobacter baumannii, antibiotics and M-block alginate oligomer in place of OligoG CF-5/20 as detailed in Table 7. The M-block oligomer is 100% M with a DPn of 15 to 18,

[13] = Table 8, G-block (OligoCF-5/20) 0%
[14] = Table 8, G-block (OligoCF-5/20) 2%
[15] = Table 8, G-block (OligoCF-5/20) 6%
[16] = Table 8, G-block (OligoCF-5/20) 10%
[17] = Table 9, G-block (OligoCF-5/20) 0%
[18] = Table 9, G-block (OligoCF-5/20) 2%
[19] = Table 9, G-block (OligoCF-5/20) 6%
[20] = Table 9, G-block (OligoCF-5/20) 10%
[21] = Acinetobacter baumannii, OligoCF-5/20 0G, read-out: MIC
[22] = Acinetobacter lwoffii, OligoCF-5/20 0G, read-out: MIC
[23] = Burkholderia cepacia, Table 5, V23 MDR Burk cep, OligoCF-5/20 0G, read-out: MIC
[24] = Table 5, V23 MDR Burk cep, OligoCF-5/20 +2% G
[25] = Table 5, V23 MDR Burk cep, OligoCF-5/20 +6% G
[26] = Table 5, V23 MDR Burk cep, OligoCF-5/20 +10% G
[27] = Table 6, V23, Experiment 1 (18-03-10), OligoCF-5/20 +6% G
[28] = Table 6, V23, Experiment 1 (18-03-10), OligoCF-5/20 +10% G
[29] = Table 6, V23, Experiment 3 (19-03-10), OligoCF-5/20 +2% G
[30] = Table 6, V23, Experiment 3 (19-03-10), OligoCF-5/20 +10% G

CC[C@H]1OC(=O)[C@H](C)[C@@H](O[C@H]2C[C@@](C)(OC)[C@@H](O)[C@H](C)O2)[C@H](C)[C@@H](O[C@@H]2O[C@H](C)C[C@H](N(C)C)[C@H]2O)[C@](C)(O)C[C@@H](C)[C@@H]2N[C@@H](COCCOC)O[C@H]([C@H]2C)[C@]1(C)O [Dirithromycin]
MIC [1, 13]: 256 µg/mL (≈ 307 µM)
MIC [1, 14]: 256 µg/mL (≈ 307 µM)
MIC [1, 15]: 128 µg/mL (≈ 153 µM)
MIC [1, 16]: 64 µg/mL (≈ 76.6 µM)
MIC [2, 17]: 4 µg/mL (≈ 4.79 µM)
MIC [2, 18]: < 1 µg/mL
MIC [2, 19]: < 1 µg/mL
MIC [2, 20]: < 1 µg/mL
MIC [3, 17]: < 2 µg/mL
MIC [3, 18]: < 2 µg/mL
MIC [3, 19]: < 2 µg/mL
MIC [3, 20]: < 2 µg/mL

CN(C)[C@@H]1C(O)=C(C(N)=O)C(=O)[C@@]2(O)C(O)=C3C(=O)c4c(O)cccc4[C@@](C)(O)[C@H]3[C@H](O)[C@@H]12 [Oxytetracycline]
MIC ([4]; OligoCF-5/20 0G): 8 µg/mL (≈ 17.4 µM)
MIC ([4]; OligoCF-5/20 +2% G): 4 µg/mL (≈ 8.69 µM)
MIC ([4]; OligoCF-5/20 +6% G): 4 µg/mL (≈ 8.69 µM)
MIC ([4]; OligoCF-5/20 +10% G): 4 µg/mL (≈ 8.69 µM)
MIC ([5]; OligoCF-5/20 0G): 8 µg/mL (≈ 17.4 µM)
MIC ([5]; OligoCF-5/20 +2% G): 4 µg/mL (≈ 8.69 µM)
MIC ([5]; OligoCF-5/20 +6% G): 4 µg/mL (≈ 8.69 µM)
MIC ([5]; OligoCF-5/20 +10% G): 2 µg/mL (≈ 4.34 µM)
MIC [1, 13]: 128 µg/mL (≈ 278 µM)
MIC [1, 14]: 128 µg/mL (≈ 278 µM)
MIC [1, 15]: 64 µg/mL (≈ 139 µM)
MIC [1, 16]: 64 µg/mL (≈ 139 µM)
MIC [6, 21]: 2 µg/mL (≈ 4.34 µM)
MIC ([6]; OligoCF-5/20 +2% G): 2 µg/mL (≈ 4.34 µM)
MIC ([6]; OligoCF-5/20 +6% G): 1^† μg/ml
MIC ([6]; OligoCF-5/20 +10% G): 4^‡ μg/ml
MIC [2, 17]: 1 µg/mL (≈ 2.17 µM)
MIC [2, 18]: 0.5 µg/mL (≈ 1.09 µM)
MIC [2, 19]: 1 µg/mL (≈ 2.17 µM)
MIC [2, 20]: 0.5 µg/mL (≈ 1.09 µM)
MIC [7, 22]: 0.5 µg/mL (≈ 1.09 µM)
MIC ([7]; OligoCF-5/20 +2% G): 0.5 µg/mL (≈ 1.09 µM)
MIC ([7]; OligoCF-5/20 +6% G): 0.5 µg/mL (≈ 1.09 µM)
MIC ([7]; OligoCF-5/20 +10% G): 0.25^† μg/ml
MIC [3, 17]: < 2 µg/mL
MIC [3, 18]: < 2 µg/mL
MIC [3, 19]: < 2 µg/mL
MIC [3, 20]: < 2 µg/mL
MIC [8, 23]: 256 µg/mL (≈ 556 µM)
MIC ([8]; Burkholderia cepacia, Table 6, V23, Experiment 1 (18-03-10), OligoCF-5/20 0G, read-out: MIC): > 256 µg/mL
MIC ([8]; Burkholderia cepacia, Table 6, V23, Experiment 2 (18-03-10), OligoCF-5/20 0G, read-out: MIC): > 256 µg/mL
MIC ([8]; Burkholderia cepacia, Table 6, V23, Experiment 3 (19-03-10), OligoCF-5/20 0G, read-out: MIC): > 256 µg/mL
MIC [8, 24]: 128^† μg/ml
MIC [8, 25]: 128^† μg/ml
MIC [8, 26]: 32^† μg/ml
MIC ([8]; Table 6, V23, Experiment 1 (18-03-10), OligoCF-5/20 +2% G): 256^† μg/ml
MIC [8, 27]: 256^† μg/ml
MIC [8, 28]: 128^† μg/ml
MIC ([8]; Table 6, V23, Experiment 2 (18-03-10), OligoCF-5/20 +2% G): >256 µg/mL
MIC ([8]; Table 6, V23, Experiment 2 (18-03-10), OligoCF-5/20 +6% G): 256^† μg/ml
MIC ([8]; Table 6, V23, Experiment 2 (18-03-10), OligoCF-5/20 +10% G): 128^† μg/ml
MIC [8, 29]: 256^† μg/ml
MIC ([8]; Table 6, V23, Experiment 3 (19-03-10), OligoCF-5/20 +6% G): 256^† μg/ml
MIC [8, 30]: 256^† μg/ml
MIC ([9]; OligoCF-5/20 0G): 8 µg/mL (≈ 17.4 µM)
MIC ([9]; OligoCF-5/20 +2% G): 8 µg/mL (≈ 17.4 µM)
MIC ([9]; OligoCF-5/20 +6% G): 4 µg/mL (≈ 8.69 µM)
MIC ([9]; OligoCF-5/20 +10% G): 4 µg/mL (≈ 8.69 µM)

CC[C@H]1OC(=O)[C@H](C)[C@@H](O[C@H]2C[C@@](C)(OC)[C@@H](O)[C@H](C)O2)[C@H](C)[C@@H](O[C@@H]2O[C@H](C)C[C@H](N(C)C)[C@H]2O)[C@](C)(O)C[C@@H](C)/C(=N\OCOCCOC)[C@H](C)[C@@H](O)[C@]1(C)O [Roxithromycin]
MIC [1, 13]: 512 µg/mL (≈ 612 µM)
MIC [1, 14]: 512 µg/mL (≈ 612 µM)
MIC [1, 15]: 256 µg/mL (≈ 306 µM)
MIC [1, 16]: 64 µg/mL (≈ 76.5 µM)
MIC [2, 17]: 8 µg/mL (≈ 9.56 µM)
MIC [2, 18]: 4 µg/mL (≈ 4.78 µM)
MIC [2, 19]: 4 µg/mL (≈ 4.78 µM)
MIC [2, 20]: 2 µg/mL (≈ 2.39 µM)
MIC [3, 17]: 4 µg/mL (≈ 4.78 µM)
MIC [3, 18]: < 2 µg/mL
MIC [3, 19]: < 2 µg/mL
MIC [3, 20]: < 2 µg/mL

C[C@@H](O)[C@H]1C(=O)N2C(C(=O)O)=C(SCCN=CN)C[C@H]12 [Imipenem]
MIC [1, 13]: > 16 µg/mL
MIC [1, 14]: 16 µg/mL (≈ 53.4 µM)
MIC [1, 15]: 16 µg/mL (≈ 53.4 µM)
MIC [1, 16]: 16 µg/mL (≈ 53.4 µM)
MIC [2, 17]: 2 µg/mL (≈ 6.68 µM)
MIC [2, 18]: < 2 µg/mL
MIC [2, 19]: 2 µg/mL (≈ 6.68 µM)
MIC [2, 20]: < 2 µg/mL
MIC [3, 17]: 2 µg/mL (≈ 6.68 µM)
MIC [3, 18]: 2 µg/mL (≈ 6.68 µM)
MIC [3, 19]: 2 µg/mL (≈ 6.68 µM)
MIC [3, 20]: < 2 µg/mL

C[C@@H](O)[C@H]1C(=O)N2C(C(=O)O)=C(S[C@@H]3CN[C@H](C(=O)N(C)C)C3)[C@H](C)[C@H]12 [Meropenem]
MIC ([4]; OligoCF-5/20 0G): 2 µg/mL (≈ 5.22 µM)
MIC ([4]; OligoCF-5/20 +2% G): 2 µg/mL (≈ 5.22 µM)
MIC ([4]; OligoCF-5/20 +6% G): < 1 µg/mL
MIC ([4]; OligoCF-5/20 +10% G): < 1 µg/mL
MIC ([5]; OligoCF-5/20 0G): < 1 µg/mL
MIC ([5]; OligoCF-5/20 +2% G): < 1 µg/mL
MIC ([5]; OligoCF-5/20 +6% G): < 1 µg/mL
MIC ([5]; OligoCF-5/20 +10% G): < 1 µg/mL
MIC ([10]; OligoCF-5/20 0G): 64 µg/mL (≈ 167 µM)
MIC ([10]; OligoCF-5/20 +2% G): 64 µg/mL (≈ 167 µM)
MIC [6, 21]: 16 µg/mL (≈ 41.7 µM)
MIC ([6]; OligoCF-5/20 +2% G): 8^† μg/ml
MIC ([6]; OligoCF-5/20 +6% G): 8^† μg/ml
MIC ([6]; OligoCF-5/20 +10% G): 4^† μg/ml
MIC [7, 22]: 1 µg/mL (≈ 2.61 µM)
MIC ([7]; OligoCF-5/20 +2% G): 0.5^† μg/ml
MIC ([7]; OligoCF-5/20 +6% G): <0.25^† μg/ml
MIC ([7]; OligoCF-5/20 +10% G): <0.25^† μg/ml
effectiveness in conjunction with alginate oligomers ([11]; Example 1, KP05 506): inconclusive
MIC ([11]; OligoCF-5/20 0G): 64 µg/mL (≈ 167 µM)
MIC ([11]; OligoCF-5/20 +2% G): 64 µg/mL (≈ 167 µM)
MIC ([12]; M-block oligomer 0M): 8 µg/mL (≈ 20.9 µM)
MIC ([12]; M-block oligomer +2% M): 4 µg/mL (≈ 10.4 µM)
MIC ([12]; M-block oligomer +6% M): 2 µg/mL (≈ 5.22 µM)
MIC ([12]; M-block oligomer +10% M): 1 µg/mL (≈ 2.61 µM)
MIC [8, 23]: 64 µg/mL (≈ 167 µM)
MIC [8, 24]: 64 µg/mL (≈ 167 µM)
MIC [8, 25]: 32^† μg/ml
MIC [8, 26]: 8^† μg/ml
MIC [8, 27]: 64^† μg/ml
MIC [8, 28]: 64^† μg/ml
MIC [8, 29]: 64^† μg/ml
MIC [8, 30]: 64^† μg/ml
MIC ([9]; OligoCF-5/20 0G): < 1 µg/mL
MIC ([9]; OligoCF-5/20 +2% G): < 1 µg/mL
MIC ([9]; OligoCF-5/20 +6% G): < 1 µg/mL
MIC ([9]; OligoCF-5/20 +10% G): < 1 µg/mL
